Publication PMC8017616, “Discovery of two novel laccase-like multicopper oxidases from Pleurotus citrinopileatus and their application in phenolic oligomer synthesis” (Biotechnology for Biofuels, 2021)
Structures can show the parent of a compound that is named as a salt. Where two headings read alike, the source gives them in different places.

How the values were obtained:
Details in all cases: 50 mM phosphate-citrate buffer pH 4; routine assay 35 °C
PcLac2 [1] = system: T1, PcLac2; assay: spectrophotometric oxidation at […] nm, nonlinear Michaelis-Menten fit; format: biochemical, Pleurotus citrinopileatus
T1 construct: native, purified from culture supernatant (Q Sepharose, DEAE Sepharose); about 75 kDa by SDS-PAGE; band also holds a copper radical oxidase-like protein

PcLac1 [2] = system: T2, PcLac1; assay: as above; format: biochemical, Pleurotus citrinopileatus
T2 construct: native, purified from culture supernatant (Q Sepharose, DEAE Sepharose); 60 kDa by SDS-PAGE

PcLac1 [3] = system: PcLac1
PcLac2 [4] = system: PcLac2

Km (PcLac2 [1]) | Km (PcLac1 [2]) | Km (PcLac1 [3]) | Km (PcLac2 [4]) | SMILES
1070 ± 105 µM | 672 ± 56 µM |  |  | COc1cccc(OC)c1O [2,6-DMP, 2,6-dimethoxyphenol]
 |  | 60 ± 7 µM | 165 ± 15 µM | CCn1c(=NN=c2sc3cc(S(=O)(=O)O)ccc3n2CC)sc2cc(S(=O)(=O)O)ccc21 [ABTS, 2,2′-Azino-bis-(3-ethylbenzthioazoline-6-sulfonic acid) diammonium salt]
